# Measurements from ChEMBL document CHEMBL1208761, “Smoothened antagonists for hair inhibition” (Bioorg Med Chem Lett, 2010).
# “And” between values parts separate entries of the source, which are not always exact repeats. Equal entries are not always repeated. The source made the active and inactive calls. The calls are words filed in the database; no cut-off is given here.
# Tests used:
# Protein smoothened [1] = molecular target: T1, Protein smoothened (Homo sapiens, UniProt Q99835); assay: Inhibition of Smoothened transfected in HEK293 cells by transient transfection cell-based assay
# T1 sequence (Q99835 whole entry): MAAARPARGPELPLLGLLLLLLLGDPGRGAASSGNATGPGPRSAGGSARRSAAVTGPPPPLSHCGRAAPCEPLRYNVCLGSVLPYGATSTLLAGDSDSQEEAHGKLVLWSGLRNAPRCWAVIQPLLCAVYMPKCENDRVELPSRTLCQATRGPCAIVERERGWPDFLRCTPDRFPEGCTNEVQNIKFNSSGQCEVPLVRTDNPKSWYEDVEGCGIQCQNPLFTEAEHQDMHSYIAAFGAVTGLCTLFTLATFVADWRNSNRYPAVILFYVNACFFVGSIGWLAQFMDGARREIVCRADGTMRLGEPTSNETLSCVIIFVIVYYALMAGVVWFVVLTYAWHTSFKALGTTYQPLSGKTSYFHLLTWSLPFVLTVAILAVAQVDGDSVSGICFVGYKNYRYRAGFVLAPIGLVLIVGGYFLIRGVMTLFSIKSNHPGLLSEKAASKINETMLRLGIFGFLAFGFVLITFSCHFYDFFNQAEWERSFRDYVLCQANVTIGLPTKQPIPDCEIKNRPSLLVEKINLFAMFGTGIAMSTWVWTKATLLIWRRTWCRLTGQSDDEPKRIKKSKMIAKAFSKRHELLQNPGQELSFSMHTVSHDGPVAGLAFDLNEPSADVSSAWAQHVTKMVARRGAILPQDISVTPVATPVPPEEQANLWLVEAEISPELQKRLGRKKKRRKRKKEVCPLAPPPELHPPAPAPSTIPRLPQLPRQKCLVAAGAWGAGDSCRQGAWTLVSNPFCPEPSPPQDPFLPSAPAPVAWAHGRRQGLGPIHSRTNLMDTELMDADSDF
# Protein smoothened [2] = molecular target: T1, Protein smoothened; assay: Inhibition of Smoothened transfected in HEK293 cells by binding assay; type: cell-based
# Mus musculus = species on record: Mus musculus; assay: Inhibition of hair growth in C3H/HeN mouse model assessed as inhibition of hair growth after 14 days; type: functional
# [3] = Metabolic stability in rat liver microsomes assessed as half life; type: ADME, Microsome
# [4] = Metabolic stability in human liver microsomes assessed as half life; type: ADME, Microsome
# [5] = Solubility of the compound; type: physicochemical
# [6] = Inhibition of CYP450; type: ADME
# hERG (KCNH2) = hERG (KCNH2) (Homo sapiens, UniProt Q12809); assay: Inhibition of human ERG at 3 uM
# Sequence of hERG (KCNH2) (Q12809 whole entry): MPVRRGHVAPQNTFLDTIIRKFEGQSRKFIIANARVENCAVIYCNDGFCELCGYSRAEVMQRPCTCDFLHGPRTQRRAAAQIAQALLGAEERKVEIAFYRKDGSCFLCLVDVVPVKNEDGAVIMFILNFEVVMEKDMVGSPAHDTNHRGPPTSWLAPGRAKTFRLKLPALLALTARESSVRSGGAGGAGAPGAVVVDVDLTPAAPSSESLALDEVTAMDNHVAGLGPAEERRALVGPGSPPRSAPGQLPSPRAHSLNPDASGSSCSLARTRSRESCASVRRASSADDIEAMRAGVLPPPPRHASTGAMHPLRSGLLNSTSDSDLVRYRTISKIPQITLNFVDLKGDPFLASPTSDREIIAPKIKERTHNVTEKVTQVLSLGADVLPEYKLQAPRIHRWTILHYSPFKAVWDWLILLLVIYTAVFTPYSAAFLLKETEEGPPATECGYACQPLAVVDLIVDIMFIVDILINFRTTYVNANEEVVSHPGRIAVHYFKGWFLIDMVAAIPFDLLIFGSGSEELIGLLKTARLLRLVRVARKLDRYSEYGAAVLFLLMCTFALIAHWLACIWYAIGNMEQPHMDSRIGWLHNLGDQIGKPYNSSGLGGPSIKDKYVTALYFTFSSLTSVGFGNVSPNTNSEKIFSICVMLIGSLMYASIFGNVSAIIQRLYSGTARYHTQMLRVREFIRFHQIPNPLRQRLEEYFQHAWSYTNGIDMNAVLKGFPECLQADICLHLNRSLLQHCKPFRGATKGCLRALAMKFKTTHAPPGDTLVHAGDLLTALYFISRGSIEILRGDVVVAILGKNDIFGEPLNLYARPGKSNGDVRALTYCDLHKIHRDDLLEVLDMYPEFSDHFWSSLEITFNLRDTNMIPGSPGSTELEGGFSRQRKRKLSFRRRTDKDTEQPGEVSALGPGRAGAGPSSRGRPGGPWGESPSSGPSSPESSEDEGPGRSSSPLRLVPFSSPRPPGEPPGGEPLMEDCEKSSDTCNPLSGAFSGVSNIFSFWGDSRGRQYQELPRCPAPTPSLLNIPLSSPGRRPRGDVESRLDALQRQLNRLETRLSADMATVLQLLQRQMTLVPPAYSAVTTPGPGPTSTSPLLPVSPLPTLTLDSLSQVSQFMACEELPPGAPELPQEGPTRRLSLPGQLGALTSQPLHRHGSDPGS
# Zone of skin = assay: Permeability of the compound in human skin assessed as skin penetration relative to isobutylmethylxanthine; type: ADME, tissue-based
# [7] = Apparent permeability from apical to basolateral side of cell membrane at 10 uM; type: ADME; details: not told
# [8] = molecular target: T2, 5-hydroxytryptamine receptor 1A (Homo sapiens, UniProt P08908); assay: Binding affinity to 5HT1A receptor
# T2 sequence (P08908 whole entry): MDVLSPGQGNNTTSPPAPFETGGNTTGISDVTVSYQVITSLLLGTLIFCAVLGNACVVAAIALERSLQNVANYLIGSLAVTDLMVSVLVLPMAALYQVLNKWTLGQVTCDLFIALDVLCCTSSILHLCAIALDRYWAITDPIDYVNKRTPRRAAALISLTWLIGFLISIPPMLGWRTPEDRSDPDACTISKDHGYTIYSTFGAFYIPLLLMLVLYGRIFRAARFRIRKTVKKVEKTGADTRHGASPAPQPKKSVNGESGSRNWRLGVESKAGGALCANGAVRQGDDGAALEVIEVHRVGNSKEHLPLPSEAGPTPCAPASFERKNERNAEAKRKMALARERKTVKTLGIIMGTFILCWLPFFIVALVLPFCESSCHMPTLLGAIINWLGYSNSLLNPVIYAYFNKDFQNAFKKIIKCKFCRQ
# [9] = molecular target: 5-hydroxytryptamine receptor 2A (Homo sapiens, UniProt P28223); assay: Binding affinity to 5HT2A receptor
# Sequence of 5-hydroxytryptamine receptor 2A (P28223 whole entry): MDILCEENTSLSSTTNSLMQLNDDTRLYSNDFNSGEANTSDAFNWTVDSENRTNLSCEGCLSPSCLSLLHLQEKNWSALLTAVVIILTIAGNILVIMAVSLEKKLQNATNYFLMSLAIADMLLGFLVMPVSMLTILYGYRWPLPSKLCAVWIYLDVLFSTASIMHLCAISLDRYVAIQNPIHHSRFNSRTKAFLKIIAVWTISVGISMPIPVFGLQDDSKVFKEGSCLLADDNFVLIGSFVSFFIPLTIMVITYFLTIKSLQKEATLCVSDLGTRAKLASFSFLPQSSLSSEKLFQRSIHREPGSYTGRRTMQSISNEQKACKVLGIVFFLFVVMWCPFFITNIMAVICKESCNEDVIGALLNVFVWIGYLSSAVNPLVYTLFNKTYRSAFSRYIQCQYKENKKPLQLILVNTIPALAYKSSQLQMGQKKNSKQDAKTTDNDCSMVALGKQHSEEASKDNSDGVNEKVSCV
# [10] = molecular target: T3, Alpha-1A adrenergic receptor (Homo sapiens, UniProt P35348); assay: Binding affinity to adrenergic Alpha-1A receptor
# T3 sequence (P35348 whole entry): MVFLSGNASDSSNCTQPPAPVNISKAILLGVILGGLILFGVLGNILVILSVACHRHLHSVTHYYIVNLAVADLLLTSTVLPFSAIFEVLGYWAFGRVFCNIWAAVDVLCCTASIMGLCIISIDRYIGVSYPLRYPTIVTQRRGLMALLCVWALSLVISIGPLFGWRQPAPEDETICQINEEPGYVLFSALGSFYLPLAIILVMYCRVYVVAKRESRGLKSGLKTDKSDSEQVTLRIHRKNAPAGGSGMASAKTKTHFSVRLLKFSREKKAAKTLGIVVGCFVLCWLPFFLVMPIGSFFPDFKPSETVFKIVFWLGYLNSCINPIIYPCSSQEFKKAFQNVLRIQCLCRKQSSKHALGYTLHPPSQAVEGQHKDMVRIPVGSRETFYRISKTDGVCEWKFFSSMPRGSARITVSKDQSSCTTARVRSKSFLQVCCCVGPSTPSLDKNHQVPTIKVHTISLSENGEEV
# D(4) dopamine receptor = molecular target: T4, D(4) dopamine receptor (Homo sapiens, UniProt P21917); assay: Binding affinity to dopamine D4 receptor
# T4 sequence (P21917 whole entry): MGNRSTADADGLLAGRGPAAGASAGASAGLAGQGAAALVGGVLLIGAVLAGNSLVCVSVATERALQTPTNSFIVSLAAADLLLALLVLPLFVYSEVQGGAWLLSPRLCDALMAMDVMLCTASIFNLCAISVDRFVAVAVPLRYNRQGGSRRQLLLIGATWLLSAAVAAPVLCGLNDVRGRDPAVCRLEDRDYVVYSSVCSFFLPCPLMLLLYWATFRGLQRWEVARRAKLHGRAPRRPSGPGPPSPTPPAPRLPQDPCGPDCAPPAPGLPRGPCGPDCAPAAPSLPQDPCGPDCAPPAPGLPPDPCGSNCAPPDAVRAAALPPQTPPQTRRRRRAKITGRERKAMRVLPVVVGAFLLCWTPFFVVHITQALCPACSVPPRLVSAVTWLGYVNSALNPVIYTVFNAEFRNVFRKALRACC
# [11] = molecular target: T5, Alpha-1B adrenergic receptor (Homo sapiens, UniProt P35368); assay: Binding affinity to adrenergic alpha-1b receptor
# T5 sequence (P35368 whole entry): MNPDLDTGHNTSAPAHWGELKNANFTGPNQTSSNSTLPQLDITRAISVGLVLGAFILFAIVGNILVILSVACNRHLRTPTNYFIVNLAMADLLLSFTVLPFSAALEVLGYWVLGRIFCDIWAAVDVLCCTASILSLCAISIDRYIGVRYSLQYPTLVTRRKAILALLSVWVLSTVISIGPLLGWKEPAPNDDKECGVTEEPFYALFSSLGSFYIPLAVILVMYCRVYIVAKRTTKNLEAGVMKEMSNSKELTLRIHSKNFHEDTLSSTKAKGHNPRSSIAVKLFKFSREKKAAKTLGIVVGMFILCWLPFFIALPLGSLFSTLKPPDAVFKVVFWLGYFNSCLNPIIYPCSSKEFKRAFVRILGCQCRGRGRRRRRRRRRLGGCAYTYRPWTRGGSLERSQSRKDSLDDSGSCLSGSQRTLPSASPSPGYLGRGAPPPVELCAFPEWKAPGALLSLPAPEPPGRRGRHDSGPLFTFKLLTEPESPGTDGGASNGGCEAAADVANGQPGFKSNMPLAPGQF
# [12] = molecular target: Voltage-gated inwardly rectifying potassium channel KCNH2 (Homo sapiens, UniProt Q12809); assay: Binding affinity to human ERG
# Sequence of Voltage-gated inwardly rectifying potassium channel KCNH2 (Q12809 whole entry): as the sequence (Q12809 whole entry) above
# [13] = molecular target: Beta-2 adrenergic receptor (Homo sapiens, UniProt P07550); assay: Binding affinity to beta2 adrenergic receptor
# [14] = molecular target: 5-hydroxytryptamine receptor 7 (Homo sapiens, UniProt P34969); assay: Binding affinity to 5HT7 receptor
# Sequence of 5-hydroxytryptamine receptor 7 (P34969 whole entry): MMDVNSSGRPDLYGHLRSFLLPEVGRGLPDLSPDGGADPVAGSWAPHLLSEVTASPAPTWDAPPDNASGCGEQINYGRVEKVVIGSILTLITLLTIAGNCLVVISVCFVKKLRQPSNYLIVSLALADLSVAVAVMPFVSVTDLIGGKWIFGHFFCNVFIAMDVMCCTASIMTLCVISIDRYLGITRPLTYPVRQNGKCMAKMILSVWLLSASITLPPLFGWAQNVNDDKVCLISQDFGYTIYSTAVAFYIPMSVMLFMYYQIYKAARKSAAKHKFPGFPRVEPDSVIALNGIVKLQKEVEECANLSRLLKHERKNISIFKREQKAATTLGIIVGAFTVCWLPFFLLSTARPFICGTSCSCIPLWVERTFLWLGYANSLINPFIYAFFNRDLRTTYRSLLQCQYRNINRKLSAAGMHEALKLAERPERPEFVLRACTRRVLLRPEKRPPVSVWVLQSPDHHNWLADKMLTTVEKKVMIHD
# [15] = molecular target: 5-hydroxytryptamine receptor 2B (Homo sapiens, UniProt P41595); assay: Binding affinity to 5HT2B receptor
# Sequence of 5-hydroxytryptamine receptor 2B (P41595 whole entry): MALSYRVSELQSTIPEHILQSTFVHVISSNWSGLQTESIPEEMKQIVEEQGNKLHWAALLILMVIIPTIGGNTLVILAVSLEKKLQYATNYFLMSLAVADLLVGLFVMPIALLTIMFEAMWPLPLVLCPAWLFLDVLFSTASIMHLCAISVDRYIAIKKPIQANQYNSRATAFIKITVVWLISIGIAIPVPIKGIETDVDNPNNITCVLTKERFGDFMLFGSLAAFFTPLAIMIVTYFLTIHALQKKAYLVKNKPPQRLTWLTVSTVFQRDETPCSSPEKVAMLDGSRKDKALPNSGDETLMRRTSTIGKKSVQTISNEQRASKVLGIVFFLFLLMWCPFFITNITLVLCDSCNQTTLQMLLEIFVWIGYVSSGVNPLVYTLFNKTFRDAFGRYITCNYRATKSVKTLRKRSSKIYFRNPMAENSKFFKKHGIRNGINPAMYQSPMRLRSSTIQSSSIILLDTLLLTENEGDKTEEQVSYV
# [16] = molecular target: Beta-1 adrenergic receptor (Homo sapiens, UniProt P08588); assay: Binding affinity to beta-1 adrenergic receptor
# Sequence of Beta-1 adrenergic receptor (P08588 whole entry): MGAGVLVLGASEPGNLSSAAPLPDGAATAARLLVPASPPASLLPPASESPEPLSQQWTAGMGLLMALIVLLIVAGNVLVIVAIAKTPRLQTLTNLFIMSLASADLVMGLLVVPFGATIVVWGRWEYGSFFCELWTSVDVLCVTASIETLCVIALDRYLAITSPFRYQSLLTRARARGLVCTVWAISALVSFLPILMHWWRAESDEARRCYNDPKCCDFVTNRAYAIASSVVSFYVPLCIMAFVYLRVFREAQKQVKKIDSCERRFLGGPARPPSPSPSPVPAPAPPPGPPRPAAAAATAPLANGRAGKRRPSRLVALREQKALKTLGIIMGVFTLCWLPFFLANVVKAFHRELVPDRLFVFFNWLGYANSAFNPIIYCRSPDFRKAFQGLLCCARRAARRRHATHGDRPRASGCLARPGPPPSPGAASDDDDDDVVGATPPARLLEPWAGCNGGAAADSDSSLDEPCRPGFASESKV
# D(1A) dopamine receptor = D(1A) dopamine receptor (Homo sapiens, UniProt P21728); assay: Binding affinity to dopamine D1 receptor
# D(2) dopamine receptor = D(2) dopamine receptor (Homo sapiens, UniProt P14416); assay: Binding affinity to dopamine D2 receptor
# [17] = Binding affinity to calcium channel
IC50 (Protein smoothened [1]),IC50 (Protein smoothened [2]),SMILES,also measured
1690 nM,2000 nM,COc1ccc(N2CCN(Cc3c(C)nn(-c4ccc(F)cc4)c3C)CC2)cc1,–
1860 nM,10 nM,Cc1nn(-c2ccccc2)c(Cl)c1CN1CCN(c2ccc(F)cc2)CC1,–
1870 nM,> 5000 nM,COc1ccccc1N1CCN(Cc2c(C)nn(-c3ccccc3)c2C)CC1,–
> 5000 nM,> 5000 nM,Cc1nn(-c2ccccc2)cc1CN1CCN(c2ccc(F)cc2)CC1,–
105 nM,126 nM,COc1ccc(N2CCN(Cc3cnn(-c4ccccc4)c3C)CC2)cc1,–
> 5000 nM,> 5000 nM,COc1ccc(N2CCN(Cc3cn(-c4ccccc4)nc3C)CC2)cc1,–
823 nM,20 nM,COc1cccc(N2CCN(Cc3c(C)nn(-c4ccc(F)cc4)c3C)CC2)c1,–
64.7 nM,5 nM,COc1cccc(N2CCN(Cc3cnn(-c4ccc(F)cc4)c3C)CC2)c1,–

# The remaining lines, values behind:
SMILES,IC50 (Protein smoothened [1]),IC50 (Protein smoothened [2]),also measured
COc1cccc(F)c1OC1CN(Cc2cnn(-c3ccccc3)c2C)C1,8.27 nM,124 nM,hair growth inhibition (active/inactive call) (Mus musculus): Active; half-life [3]: 9.7 min; half-life [4]: 30.2 min; solubility [5]: 79 µg/mL; inhibition (INH) [6]: Not Active; inhibition at 3 µM (hERG (KCNH2)): 56%; Ratio (Zone of skin): 0.52; Papp A→B at 10 µM [7]: 11.3 ×10⁻⁶ cm/s; Ki [8]: > 1000 nM; Ki [9]: > 1000 nM; Ki [10]: 76 nM; Ki (D(4) dopamine receptor): 148 nM and > 1000 nM; Ki [11]: > 1000 nM; Ki [12]: > 1000 nM
COc1ccc(OC)c(C2CCN(Cc3cnn(-c4ccccc4F)c3C)C2)c1 (configuration not stated),40.8 nM,216 nM,hair growth inhibition (active/inactive call) (Mus musculus): Active; Ki [13]: > 1000 nM; Ki [8]: 103 nM; Ki [14]: 15 nM; Ki [15]: 180 nM; Ki [16]: > 1000 nM; Ki (D(1A) dopamine receptor): > 1000 nM; Ki (D(2) dopamine receptor): > 1000 nM; Ki [9]: > 1000 nM; Ki [17]: > 1000 nM
NCCCC(N)(C(=O)O)C(F)F (configuration not stated) [EFLORNITHINE],–,–,inhibition (INH) (Mus musculus): 13.9%
Cc1c(CN2CCN(c3cccc(C(F)(F)F)c3)CC2)cnn1-c1ccccc1,328 nM,333 nM,–
Cc1nn(-c2ccccc2)c(C)c1/C=N/N1CCN(Cc2ccccc2)CC1,4.74 nM,25 nM,inhibition (INH) (Mus musculus): 3%
Cc1c(CN2CCN(c3ccccc3)CC2)cnn1-c1ccccc1,78.4 nM,96 nM,–
